What was measured:
Type in all cases: cell-based
HS 578T = test: NCI COMPARE panel (SRB growth inhibition), HS 578T; details: Homo sapiens, Breast Cancer, 48 h
Procedure: (§1) The human tumor cell lines of the cancer screening panel are grown in RPMI 1640 medium containing 5% fetal bovine serum and 2 mM L-glutamine. For a typical screening experiment, cells are inoculated into 96 well microtiter plates in 100 µL at plating densities ranging from 5,000 to 40,000 cells/well depending on the doubling time of individual cell lines. After cell inoculation, the microtiter plates are incubated at 37° C., 5% CO2, 95% air and 100% relative humidity for 24 h prior to addition of experimental drugs.
(§2) After 24 h, two plates of each cell line are fixed in situ with TCA, to represent a measurement of the cell population for each cell line at the time of drug addition (Tz). Experimental drugs are solubilized in dimethyl sulfoxide at 400-fold the desired final maximum test concentration and stored frozen prior to use. […]
(§3) Following drug addition, the plates are incubated for an additional 48 h at 37° C., 5 % CO2, 95% air, and 100% relative humidity. […] Bound stain is subsequently solubilized with 10 mM trizma base, and the absorbance is read on an automated plate reader at a wavelength of 515 nm. […] Using the seven absorbance measurements [time zero, (Tz), control growth, (C), and test growth in the presence of drug at the five concentration levels (Ti)], the percentage growth is calculated at each of the drug concentrations levels. Percentage growth inhibition is calculated as: […]

T-47D = test: NCI COMPARE panel (SRB growth inhibition), T-47D; details: Homo sapiens, T47D, Breast Cancer, 48 h
Procedure: as §1, §2, §3

SF-295 = test: NCI COMPARE panel (SRB growth inhibition), SF-295; details: Homo sapiens; CNS Cancer, SF-295, 48 h
Procedure: as §1, §2, §3

MALME-3M = test: NCI COMPARE panel (SRB growth inhibition), MALME-3M; details: Homo sapiens, Melanoma, 48 h
Procedure: as §1, §2, §3

SK-MEL-28 = test: NCI COMPARE panel (SRB growth inhibition), SK-MEL-28; details: Homo sapiens; Melanoma, SK-MEL-28, 48 h
Procedure: as §1, §2, §3

HOP-92 = test: NCI COMPARE panel (SRB growth inhibition), HOP-92; details: Homo sapiens; Non-Small Cell Lung Cancer, HOP-92, 48 h
Procedure: as §1, §2, §3

OVCAR-5 = test: NCI COMPARE panel (SRB growth inhibition), OVCAR-5; details: Homo sapiens; Ovarian Cancer, OVCAR-5, 48 h
Procedure: as §1, §2, §3

## CS(=O)(=O)Nc1cc(-c2ccc3ncnc(Nc4cccc(Cl)c4F)c3c2)cnc1Cl [Compound 6, N-[2-chloro-5-[4-(3-chloro-2-fluoro-anilino)quinazolin-6-yl]-3-pyridyl] methanesulfonamide]
HS 578T
  GI50: ≤ 0.075 µM
T-47D
  GI50: ≤ 0.075 µM
SF-295
  GI50: 0.125 to 0.25 µM
MALME-3M
  GI50: ≤ 0.075 µM
SK-MEL-28
  GI50: 0.075 to 0.125 µM
HOP-92
  GI50: ≤ 0.075 µM
OVCAR-5
  GI50: 0.125 to 0.25 µM

## CS(=O)(=O)Nc1cc(-c2ccc3ncc(C#N)c(Nc4cccc(Cl)c4F)c3c2)cnc1Cl [Compound 10, N-[2-chloro-5-[4-(3-chloro-2-fluoro-anilino)-3-cyano-6-quinolyl]-3-pyridyl]methanesulfonamide]
HS 578T
  GI50: ≤ 0.075 µM
T-47D
  GI50: 0.125 to 0.25 µM
SF-295
  GI50: 0.125 to 0.25 µM
MALME-3M
  GI50: 0.075 to 0.125 µM
SK-MEL-28
  GI50: 0.125 to 0.25 µM
HOP-92
  GI50: ≤ 0.075 µM
OVCAR-5
  GI50: > 0.25 µM

Source: patent US20230133958A1, “COMPOUNDS USEFUL IN MODULATING EGFR AND PI3K” (Mekanistic Therapeutics LLC, priority 2021, published 2023)
